Like-named read-outs stand apart in the source and are kept apart here.

Series [1] is described as follows: Brain and plasma drug levels 1 h after i.p. administration (LC-MS/MS). Conditions: mice, 1 h after i.p. 5 mg/Kg. The format is in vivo. How it is done:
(§1) Test compounds underwent preliminary evaluations of brain penetration, in which 5 mg/Kg of each compound was administered intraperitoneally (i.p.) to a group of three normal mice; drug levels in brain and plasma were determined at a single time-point (1 h) by LC-MS/MS using pre-validated calibration curves. […] However, both esters appeared to have relatively short half-lives in plasma, as indicated by the limited amount of parent drug detected after 1 h from administration of the compounds. […] CNDR-51362 was selected for full PK analysis in which brain and plasma drug levels were determined at six time points (i.e., 30 min, 1 h, 2 h, 4 h, 8 h, and 16 h). The results from this experiment, illustrated in FIG. 6A, confirmed that the total B/P exposure ratio over 16 h is 1.6. […] Finally, in order to investigate the potential for ATPZ congeners to be orally administered, we evaluated brain and plasma level of CNDR-51362 and CNDR-51349 after oral administration of 5 mg/Kg.
(§2) Brain tissue was homogenized in 10 mM ammonium acetate, pH 5.7 (1:2; w/v) using a handheld sonic homogenizer. Plasma was obtained from blood that was collected into a 1.5 mL tube containing 0.5M EDTA solution and subjected to centrifugation for 10 min. at 4500 g at 4° C. Aliquots (50 μL) of brain homogenate or plasma were mixed with 0.2 mL of acetonitrile, centrifuged at 15,000 g, and the resulting supernatants were used for subsequent LC-MS/MS analysis. The LC-MS/MS system was comprised of an Aquity HPLC and a TQ MS that was controlled using MassLynx software (Waters Corporation, Milford, Mass., USA). Compounds were detected using multiple reaction monitoring (MRM) of their specific collision-induced ion transitions. Samples (5 μL) were separated on an Aquity BEH C18 column (1.7 μm, 2.1×50 mm) at 35° C. Operation was in positive electrospray ionization mode, with mobile phase A of 0.1% (v/v) formic acid, and B of either acetonitrile or methanol with 0.1% (v/v) formic acid at a flow rate of 0.6 mL/min using a gradient from 5% to 95% B over two min., followed by wash and re-equilibration steps. The MS was operated with a desolvation temperature of 450° C. and a source temperature of 150° C. Desolvation and source nitrogen gas flows were 900 L/hr and 50 L/hr, respectively. Source and MS/MS voltages were optimized for each compound using the MassLynx auto tune utility. Standard curves were generated for each compound from brain homogenate and plasma samples that had compound added at 4, 40, 400 and 4000 ng/mL and extracted as above. Peak areas were plotted against concentration and a 1/x weighted linear regression curve was used to quantify the tissue-derived samples using the average peak area from triplicate injections.

Series [2] is described as follows: Full PK analysis and oral administration, brain and plasma levels. Format: in vivo, mice. Conditions: for half-life: 2 mg/kg, full PK analysis, FIG. 6A. How it is done: FIG. 6. (A) Brain and plasma level of F4 (CNDR-51362) after i.v. administration at 2 mg/Kg; (B) Brain and plasma level of F4 (CNDR-51362) after oral administration at 5 mg/Kg; (C) Brain and plasma level of F3 (CNDR-51349) after oral administration at 5 mg/Kg
as §1, §2

Another series has as its target T1, Aβ(1-42) (Homo sapiens, UniProt P05067).
T1 construct: Synthetic Aβ(1-42) peptide (rPeptide); purchased rPeptide
The experiment in a line: Aβ(1-42) fibrillization assay (ThT). The format is biochemical. Conditions: Table 3; highest tested concentration (80 μM); read-out: Aβ42 ThT Assay % Inhib.

T1 sequence (P05067 672-713 limits assumed): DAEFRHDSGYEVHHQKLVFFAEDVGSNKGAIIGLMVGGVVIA

Consider `Nc1scc2c(C(=O)NC3CC3)nn(-c3ccc(Cl)cc3)c(=O)c12` [CNDR-51362, 5-Amino-3-(4-chlorophenyl)-N-cyclopropyl-4-oxo-3,4-dihydrothieno[3,4-d]pyridazine-1-carboxamide], for which the “B/P, ratio between brain/plasma drug level” value in series [1] was 1.6. Besides, in series [2] (mouse, brain and plasma, iv, over 16 h, six time points, FIG. 6A (i.v. 2 mg/Kg), read-out: Total brain-to-plasma (B/P) AUC exposure ratio), the Kp at 16 h is 1.6. For the same molecule, the half-life in series [2] (mouse, brain, iv, read-out: Elimination half-life in the brain (converted)) was ~9.5 h; in series [2] (mouse, plasma, iv, read-out: Elimination half-life in plasma (converted)) it was ~7.4 h. For the same molecule, in series [2] (mouse, plasma AUC after oral 5 mg/Kg versus i.v. 2 mg/Kg), the bioavailability was ~64%. In addition, the “Brain concentration after oral administration” value in series [2] (oral 5 mg/Kg, FIGS. 6B and 6C, 5 mg/kg) is on record as “significant brain concentrations”.

`CCOC(=O)c1nn(-c2ccc(Cl)cc2)c(=O)c2c(N)scc12` [Compound 17, Ethyl 5-amino-3-(4-chlorophenyl)-4-oxo-3,4-dihydrothieno[3,4-d]pyridazine-1-carboxylate] yielded a melting point of 189 to 191 °C. The inhibition at 80 µM at Aβ(1-42) turned out to be 41%. Further, the “B/P, ratio between brain/plasma drug level” value in series [1] (5 mg/kg) worked out at 3.3. Moreover, the “B/P, ratio between brain/plasma drug level” value in series [1] (listed as CNDR-51346, 5 mg/kg) is on record as “comparatively higher B/P ratio”.

In general, half-life refers to the time in which the quantity being followed falls by half. The bioavailability is the share of a dose that reaches the circulation, judged against a reference dose that is usually intravenous. Higher therefore signals much systemic uptake. As a reminder, the melting point is the temperature, or range, at which the solid turns liquid.
